Measurements: patent US20230055705A1, “SUBSTITUTED THIOPHENE CARBOXAMIDES AND DERIVATIVES THEREOF” (Bayer Aktiengesellschaft, priority 2019, published 2023)

The molecules below were run on Alternaria alternata (assay: Alternaria alternata in vitro cell test). Details: 120 h, 20 ppm of active ingredient, 5 days incubation, read-out: efficacy (inhibition of fungal growth).
Type: cell-based
Procedure: • Solvent: DMSO • Culture medium: 14.6 g anhydrous D-glucose (VWR), 7.1 g Mycological Peptone (Oxoid), 1.4 g granulated Yeast Extract (Merck), QSP 1 liter • Inoculum: spores suspension
Fungicides were solubilized in DMSO and the solution used to prepare the required range of concentrations. The final concentration of DMSO used in the assay was ≤[…]1%.
A spore suspension of A. alternata was prepared and diluted to the desired spore density.
Fungicides were evaluated for their ability to inhibit spore germination and mycelium growth in liquid culture assay. The compounds were added in the desired concentration to the culture medium with spores. After 5 days incubation, fungi-toxicity of compounds was determined by spectrometric measurement of mycelium growth. Inhibition of fungal growth was determined by comparing the absorbance values in wells containing the fungicides with the absorbance in control wells without fungicides.

Structure (SMILES) | inhibition at 20 ppm
COC(=O)[C@H](CCCNC(=N)N)NC(=O)c1sc(Cl)c(Cl)c1Cl [I.008] | ≤ 30%
CCOC(=O)C(C#N)NC(=O)c1sc(Cl)c(Cl)c1Cl (centres unmarked) [I.009] | ≤ 30%
COC(=O)[C@H](CC(N)=O)NC(=O)c1sc(Cl)c(Cl)c1Cl [I.015] | ≤ 30%
COC(=O)C(CC(F)F)NC(=O)c1sc(Cl)c(Cl)c1Cl (centres unmarked) [I.016] | ≤ 30%
O=C(O)CNC(=S)c1sc(Cl)c(Cl)c1Cl [I.022, N-[(3,4,5-trichloro-2-thienyl)carbonothioyl]glycine] | ≤ 30%
COC(=O)CNC(=S)c1sc(Cl)c(Cl)c1Cl [I.038, methyl N-[(3,4,5-trichloro-2-thienyl)carbonothioyl]glycinate] | ≤ 30%
CCOC(=O)C(CC(N)=O)NC(=O)c1sc(Cl)c(Cl)c1Cl (centres unmarked) [I.046] | ≤ 30%
CCOC(=O)C(CC(F)(F)F)NC(=O)c1sc(Cl)c(Cl)c1Cl (centres unmarked) [I.048] | ≤ 30%
C[C@H](NC(=S)c1sc(Cl)c(Cl)c1Cl)C(=O)O [I.113] | ≤ 30%
C[C@H](NC(=O)c1sc(Cl)c(Cl)c1Cl)C(N)=O [I.119] | ≤ 30%
COC(=O)[C@H](CSC(=O)N(C)C)NC(=O)c1sc(Cl)c(Cl)c1Cl [I.142] | ≤ 30%
CCOC(=O)C(CSC)NC(=O)c1sc(Cl)c(Cl)c1Cl (centres unmarked) [I.143] | ≤ 30%
COC(=O)C[C@H](NC(=O)c1sc(Cl)c(Cl)c1Cl)C(=O)OC [I.144] | ≤ 30%

What follows are molecules tested on Pseudomonas syringae pv. tomato (assay: Pseudomonas syringae pv. tomato in vitro cell test). Details: 20 ppm of active ingredient, 24 h incubation, read-out: efficacy (inhibition of bacteria growth).
Type: cell-based
Method in brief: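 Bacterial suspension pre-cultured and diluted to set OD in LB broth, incubated 24 h with compounds (DMSO, 1% final). Growth read spectrometrically; inhibition calculated from absorbance versus untreated control wells.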

Structure (SMILES) | inhibition at 20 ppm
COC(=O)[C@H](CCCNC(=N)N)NC(=O)c1sc(Cl)c(Cl)c1Cl [I.008] | ≤ 30%
CCOC(=O)C(C#N)NC(=O)c1sc(Cl)c(Cl)c1Cl (centres unmarked) [I.009] | ≤ 30%
COC(=O)C(Cc1c[nH]cn1)NC(=O)c1sc(Cl)c(Cl)c1Cl (centres unmarked) [I.012] | ≤ 30%
COC(=O)[C@H](CC(N)=O)NC(=O)c1sc(Cl)c(Cl)c1Cl [I.015] | ≤ 30%
COC(=O)C(CC(F)F)NC(=O)c1sc(Cl)c(Cl)c1Cl (centres unmarked) [I.016] | ≤ 30%
O=C(O)CNC(=S)c1sc(Cl)c(Cl)c1Cl [I.022, N-[(3,4,5-trichloro-2-thienyl)carbonothioyl]glycine] | ≤ 30%
COC(=O)CNC(=S)c1sc(Cl)c(Cl)c1Cl [I.038, methyl N-[(3,4,5-trichloro-2-thienyl)carbonothioyl]glycinate] | ≤ 30%
CCOC(=O)C(CC(N)=O)NC(=O)c1sc(Cl)c(Cl)c1Cl (centres unmarked) [I.046] | ≤ 30%
CCOC(=O)C(CC(F)(F)F)NC(=O)c1sc(Cl)c(Cl)c1Cl (centres unmarked) [I.048] | ≤ 30%
C[C@H](NC(=S)c1sc(Cl)c(Cl)c1Cl)C(=O)O [I.113] | ≤ 30%
C[C@H](NC(=O)c1sc(Cl)c(Cl)c1Cl)C(N)=O [I.119] | ≤ 30%
COC(=O)[C@H](CSC(=O)N(C)C)NC(=O)c1sc(Cl)c(Cl)c1Cl [I.142] | ≤ 30%
CCOC(=O)C(CSC)NC(=O)c1sc(Cl)c(Cl)c1Cl (centres unmarked) [I.143] | ≤ 30%
COC(=O)C[C@H](NC(=O)c1sc(Cl)c(Cl)c1Cl)C(=O)OC [I.144] | ≤ 30%

Each molecule was assayed on salicylate responsive promoter sequence of the PR1 (pathogenesis-related protein I) gene (AT2G14610) (assay: Induction of defense gene expression in Arabidopsis thaliana (PR1 promoter-GFP reporter plants)). Details: Arabidopsis thaliana, 72 h; 75 ppm of compound; 3rd day after spraying; mock treated leaves set as 1.00; read-out: relative fluorescence value.
Type: in vivo
Method in brief: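 Transgenic A. thaliana carrying GFP under the salicylate-responsive PR1 promoter, grown five days, then sprayed with compounds. Whole-plant fluorescence imaged and quantified on day 3 post-spray, expressed relative to mock-treated leaf background set at 1.00.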

Structure (SMILES) | fold induction at 75 ppm
COC(=O)[C@H](CCCNC(=N)N)NC(=O)c1sc(Cl)c(Cl)c1Cl [I.008] | > 2
CCOC(=O)C(C#N)NC(=O)c1sc(Cl)c(Cl)c1Cl (centres unmarked) [I.009] | > 2
COC(=O)C(Cc1c[nH]cn1)NC(=O)c1sc(Cl)c(Cl)c1Cl (centres unmarked) [I.012] | > 2
COC(=O)[C@H](CC(N)=O)NC(=O)c1sc(Cl)c(Cl)c1Cl [I.015] | > 2
COC(=O)C(CC(F)F)NC(=O)c1sc(Cl)c(Cl)c1Cl (centres unmarked) [I.016] | > 2
O=C(O)CNC(=S)c1sc(Cl)c(Cl)c1Cl [I.022, N-[(3,4,5-trichloro-2-thienyl)carbonothioyl]glycine] | > 2
CCOC(=O)C(CC(N)=O)NC(=O)c1sc(Cl)c(Cl)c1Cl (centres unmarked) [I.046] | > 2
CCOC(=O)C(CC(F)(F)F)NC(=O)c1sc(Cl)c(Cl)c1Cl (centres unmarked) [I.048] | > 2
C[C@H](NC(=S)c1sc(Cl)c(Cl)c1Cl)C(=O)O [I.113] | > 2
C[C@H](NC(=O)c1sc(Cl)c(Cl)c1Cl)C(N)=O [I.119] | > 2
COC(=O)[C@H](CSC(=O)N(C)C)NC(=O)c1sc(Cl)c(Cl)c1Cl [I.142] | > 2
CCOC(=O)C(CSC)NC(=O)c1sc(Cl)c(Cl)c1Cl (centres unmarked) [I.143] | > 2
COC(=O)C[C@H](NC(=O)c1sc(Cl)c(Cl)c1Cl)C(=O)OC [I.144] | > 2

Same assay, conditions: Arabidopsis thaliana, 72 h; 300 ppm; 3rd day after spraying; mock treated leaves set as 1.00; read-out: relative fluorescence value

Structure (SMILES) | fold induction at 300 ppm
COC(=O)[C@H](CCCNC(=N)N)NC(=O)c1sc(Cl)c(Cl)c1Cl [I.008] | > 2
CCOC(=O)C(C#N)NC(=O)c1sc(Cl)c(Cl)c1Cl (centres unmarked) [I.009] | > 2
COC(=O)C(Cc1c[nH]cn1)NC(=O)c1sc(Cl)c(Cl)c1Cl (centres unmarked) [I.012] | > 2
COC(=O)[C@H](CC(N)=O)NC(=O)c1sc(Cl)c(Cl)c1Cl [I.015] | > 2
COC(=O)C(CC(F)F)NC(=O)c1sc(Cl)c(Cl)c1Cl (centres unmarked) [I.016] | > 2
COC(=O)CNC(=S)c1sc(Cl)c(Cl)c1Cl [I.038, methyl N-[(3,4,5-trichloro-2-thienyl)carbonothioyl]glycinate] | > 2
CCOC(=O)C(CC(N)=O)NC(=O)c1sc(Cl)c(Cl)c1Cl (centres unmarked) [I.046] | > 2
CCOC(=O)C(CC(F)(F)F)NC(=O)c1sc(Cl)c(Cl)c1Cl (centres unmarked) [I.048] | > 2
C[C@H](NC(=S)c1sc(Cl)c(Cl)c1Cl)C(=O)O [I.113] | > 2
C[C@H](NC(=O)c1sc(Cl)c(Cl)c1Cl)C(N)=O [I.119] | > 2
COC(=O)[C@H](CSC(=O)N(C)C)NC(=O)c1sc(Cl)c(Cl)c1Cl [I.142] | > 2
CCOC(=O)C(CSC)NC(=O)c1sc(Cl)c(Cl)c1Cl (centres unmarked) [I.143] | > 2
COC(=O)C[C@H](NC(=O)c1sc(Cl)c(Cl)c1Cl)C(=O)OC [I.144] | > 2

What follows are molecules tested on Uromyces appendiculatus (assay: In vivo preventive test on Uromyces appendiculatus (bean rust)). Details: 240 h, 125 ppm of active ingredient, evaluated 10 days after inoculation, read-out: efficacy.
Method in brief: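 Young bean plants sprayed with compound in acetone/DMSO/Tween diluted in water, inoculated 72 h later with U. appendiculatus spore suspension. Held 24 h at 20 °C, 100% RH, then 9 days at 20 °C, 70-80% RH. Efficacy scored 10 days post-inoculation versus solvent-treated controls (0% = control, 100% = no disease).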

Structure (SMILES) | pest or weed control at 125 ppm
COC(=O)[C@H](CCCNC(=N)N)NC(=O)c1sc(Cl)c(Cl)c1Cl [I.008] | 70 to 79%
CCOC(=O)C(C#N)NC(=O)c1sc(Cl)c(Cl)c1Cl (centres unmarked) [I.009] | 90 to 100%
COC(=O)[C@H](CC(N)=O)NC(=O)c1sc(Cl)c(Cl)c1Cl [I.015] | 80 to 89%
COC(=O)C(CC(F)F)NC(=O)c1sc(Cl)c(Cl)c1Cl (centres unmarked) [I.016] | 90 to 100%
CCOC(=O)C(CC(N)=O)NC(=O)c1sc(Cl)c(Cl)c1Cl (centres unmarked) [I.046] | 90 to 100%
CCOC(=O)C(CC(F)(F)F)NC(=O)c1sc(Cl)c(Cl)c1Cl (centres unmarked) [I.048] | 90 to 100%
C[C@H](NC(=S)c1sc(Cl)c(Cl)c1Cl)C(=O)O [I.113] | 90 to 100%
C[C@H](NC(=O)c1sc(Cl)c(Cl)c1Cl)C(N)=O [I.119] | 90 to 100%
COC(=O)[C@H](CSC(=O)N(C)C)NC(=O)c1sc(Cl)c(Cl)c1Cl [I.142] | 90 to 100%
CCOC(=O)C(CSC)NC(=O)c1sc(Cl)c(Cl)c1Cl (centres unmarked) [I.143] | 90 to 100%
COC(=O)C[C@H](NC(=O)c1sc(Cl)c(Cl)c1Cl)C(=O)OC [I.144] | 90 to 100%

Same assay, conditions: 240 h, 500 ppm of active ingredient, evaluated 10 days after inoculation, read-out: efficacy

Structure (SMILES) | pest or weed control at 500 ppm
COC(=O)[C@H](CCCNC(=N)N)NC(=O)c1sc(Cl)c(Cl)c1Cl [I.008] | 90 to 100%
CCOC(=O)C(C#N)NC(=O)c1sc(Cl)c(Cl)c1Cl (centres unmarked) [I.009] | 90 to 100%
COC(=O)C(Cc1c[nH]cn1)NC(=O)c1sc(Cl)c(Cl)c1Cl (centres unmarked) [I.012] | 90 to 100%
COC(=O)C(CC(F)F)NC(=O)c1sc(Cl)c(Cl)c1Cl (centres unmarked) [I.016] | 90 to 100%
O=C(O)CNC(=S)c1sc(Cl)c(Cl)c1Cl [I.022, N-[(3,4,5-trichloro-2-thienyl)carbonothioyl]glycine] | 90 to 100%
COC(=O)CNC(=S)c1sc(Cl)c(Cl)c1Cl [I.038, methyl N-[(3,4,5-trichloro-2-thienyl)carbonothioyl]glycinate] | 90 to 100%
CCOC(=O)C(CC(N)=O)NC(=O)c1sc(Cl)c(Cl)c1Cl (centres unmarked) [I.046] | 90 to 100%
CCOC(=O)C(CC(F)(F)F)NC(=O)c1sc(Cl)c(Cl)c1Cl (centres unmarked) [I.048] | 90 to 100%
C[C@H](NC(=S)c1sc(Cl)c(Cl)c1Cl)C(=O)O [I.113] | 90 to 100%
C[C@H](NC(=O)c1sc(Cl)c(Cl)c1Cl)C(N)=O [I.119] | 90 to 100%
